Reference: patent US8058433B2, “Crystalline pharmaceutical” (Abbott Laboratories, priority 2000, dated 2011)

Experiment: Hygroscopicity of the crystal form
Type: physicochemical
Conditions: unless maintained at about 0% relative humidity the form comprises greater than 0.5 molecules of water per molecule of lopinavir
Excerpt: The Type I hydrated crystal form of lopinavir comprising about 0.5 molecules of water per molecule of lopinavir is hygroscopic. Therefore, unless maintained under conditions of about 0% relative humidity, the Type I hydrated crystal form of lopinavir comprises greater than 0.5 molecules of water per molecule of lopinavir. If a Type I hydrated crystal form of lopinavir is dehydrated to below about 0.5 molecules of water per molecule of lopinavir, amorphous lopinavir is obtained.
The Type I crystal form of lopinavir comprising about 0.5 molecules of water per molecule of lopinavir has the powder X-ray diffraction pattern which appears in FIG. 1. The Type I crystal form of lopinavir comprising about 0.5 molecules of water per molecule of lopinavir has the solid state ^13C nuclear magnetic resonance spectrum, FT near infrared spectrum and FT mid infrared spectrum which appear in FIGS. 2, 3 and 4, respectively. The sample from which the infrared and nuclear magnetic resonance spectra were obtained may contain somewhat more than 0.5 molecules of water per molecule of lopinavir due to the hygroscopicity of the crystal form when the level of hydration is about 0.5 molecules of water per molecule of lopinavir.

With `Cc1cccc(C)c1OCC(=O)N[C@@H](Cc1ccccc1)[C@@H](O)C[C@H](Cc1ccccc1)NC(=O)[C@H](C(C)C)N1CCCNC1=O` the hygroscopicity was “hygroscopic”.
